From BigSolDB 2.1

CCn1c2ccccc2c2cc(-n3nncc3-c3ccccc3)ccc21
Conditions	solubility (mole fraction)
in acetonitrile, 281.7 K	0.00188
in acetonitrile, 287.8 K	0.00249
in acetonitrile, 295.4 K	0.00335
in acetonitrile, 304.8 K	0.00485
in acetonitrile, 312.3 K	0.0066
in acetonitrile, 319.4 K	0.00933
in acetonitrile, 325 K	0.0125
in ethanol, 279.2 K	0.000406
in ethanol, 281.5 K	0.000428
in ethanol, 285.8 K	0.000529
in ethanol, 288.8 K	0.000598
in ethanol, 291.9 K	0.000685
in ethanol, 297.2 K	0.000847
in ethanol, 307.8 K	0.00136
in ethanol, 313 K	0.0017
in ethanol, 318.9 K	0.00222
in ethanol, 323.2 K	0.00274
in ethanol, 329 K	0.00376
in ethyl acetate, 278.9 K	0.00403
in ethyl acetate, 282.5 K	0.00438
in ethyl acetate, 288.6 K	0.00531
in ethyl acetate, 293.8 K	0.0062
in ethyl acetate, 296.6 K	0.00681
in ethyl acetate, 301.9 K	0.00793
in ethyl acetate, 306.3 K	0.00903
in ethyl acetate, 310.5 K	0.0103
in ethyl acetate, 318 K	0.0129
in ethyl acetate, 322.8 K	0.0154
in ethyl acetate, 326.9 K	0.0182
in isopropanol, 279.4 K	0.000218
in isopropanol, 290.4 K	0.000352
in isopropanol, 294.2 K	0.000467
in isopropanol, 298.4 K	0.000571
in isopropanol, 300.9 K	0.000684
in isopropanol, 304.6 K	0.000794
in isopropanol, 307.7 K	0.000913
in isopropanol, 311 K	0.00113
in isopropanol, 319.5 K	0.00181
in isopropanol, 324.1 K	0.00226
in isopropanol, 330.2 K	0.00329
in methanol, 279.3 K	0.000409
in methanol, 281.9 K	0.000468
in methanol, 288.2 K	0.000591
in methanol, 300.7 K	0.000949
in methanol, 306.1 K	0.00116
in methanol, 314.8 K	0.00165
in methanol, 320.7 K	0.00222
in methanol, 325 K	0.00279
in n-butanol, 280.1 K	0.000585
in n-butanol, 283.7 K	0.000684
in n-butanol, 288.6 K	0.000848
in n-butanol, 292.7 K	0.00111
in n-butanol, 298.2 K	0.00138
in n-butanol, 307.4 K	0.00221
in n-butanol, 312.6 K	0.00276
in n-butanol, 320.4 K	0.00401
in n-butanol, 331.5 K	0.00688
in n-propanol, 283 K	0.000556
in n-propanol, 285.1 K	0.00067
in n-propanol, 288.8 K	0.000774
in n-propanol, 297.1 K	0.00111
in n-propanol, 307 K	0.00177
in n-propanol, 312.2 K	0.00223
in n-propanol, 319.4 K	0.00314
in n-propanol, 325.2 K	0.00418
in n-propanol, 330.2 K	0.00554
in sec-butanol, 279.9 K	0.000287
in sec-butanol, 283.2 K	0.000366
in sec-butanol, 291.7 K	0.000592
in sec-butanol, 294.6 K	0.00073
in sec-butanol, 298.4 K	0.000892
in sec-butanol, 306.7 K	0.00149
in sec-butanol, 315.7 K	0.0024
in sec-butanol, 319.1 K	0.00295
in sec-butanol, 321.3 K	0.0034
in sec-butanol, 329.5 K	0.0053
